Assay results from patent US20230046728A1, “TECHNOLOGIES USEFUL FOR ASSESSING PERMEABILITY” (FOG PHARMACEUTICALS, INC., priority 2019, published 2023).

Experiments:
[1] = tested on: Expi293 cells transfected with His-Halotag; assay: Library cell penetration assay, cell crash method (Example 6); assay type: in vitro ADME, human
Experimental: Animal cells (e.g., Expi293 cells or human HEK 293 cells) were seeded in tissue culture plates and cultured in Opti-MEM media. The cells were set in PETG flasks at a concentration of 6×10^5 cells/mL and a volume of 30 mL. The cell viability was checked to be above 90-93%. The flasks were placed in a shaking incubator at 300 rpm in 8% CO2.
After 24 hours of incubation, for each flask, one 1.5-mL Lo-bind tube and one 2-mL Lo-Bind tube were prepared. In the 1.5-mL tube, 30 μg of polyhistidine-tagged halotag (His-Halotag) plasmid and Opti-MEM media were added to provide a 1-mL mixture. In the 2-mL Lo-Bind tube, 60 μL of ExpiFectamine and 940 μL of Opti-MEM were added. After 5 minutes, the plasmid/Opti-MEM mixture was added to the ExpiFectamine/Opti-MEM mixture. The combined mixture was placed in an incubator at room temperature for 20 minutes, which was subsequently added to the flask.
After 48 hours of transfection, the transfected cells were checked for viability (90% or higher). The transfected cells were transferred to a protein Lo-Bind Eppendorf 96-well deep well plate (1000 μL), where each well contained 1 million cells in 500 μL of Expi293 media.
Solutions of candidate compounds, either individual peptides or peptides from a peptide library (DPLs), were received at a stock concentration of 10 mM and diluted in DMSO and kept in a “Source Plate”. For DPLs, the peptide concentration in the “Source Plate” was 1 mM, whereas for individual peptides, the concentration was either 100 μM (for a final concentration of 100 nM) or 10 μM (for a final concentration of 10 nM). […] of the DPL or individual peptide solution was added in triplicates to the 96-well plate. The cells were kept in a shaking incubator at 300 rpm and 37 ° C., 8% CO2 overnight for about 18-20 hours.
The following day, one of the following two methods was performed: i) capture beads method or ii) cell crash method.
Cell crash method: the 96-well plate was placed in the centrifuge at 300 g for 5 minutes. 720 μL of the supernatant was removed. The cells were resuspended in residual 200 μL of media. The suspensions were transferred to a 96-well v-bottom plate, which was placed in the centrifuge at 300 g for an additional 5 minutes. All remaining media was removed. The cell pellets were washed with 200 μL of PBS, mixed and placed back in the centrifuge at 300 g and 4 ° C. for an additional 5 minutes. The supernatant was removed and 80 μL of PBS was added.
80 μL of eluted proteins/peptides from the capture beads method or the PBD solution from the cell crash method was transferred into a deepwell low binding plate (500 μL). 80 μL of ammonium hydroxide was added. The plate was kept on a shaker at 37 ° C. for 3 hours. The plate was dried in a speedvac overnight.
The following day, the dried cell pellet was resuspended in 70 μL of 47.5% water with 0.1% FA/47.5% ACN with 0.1% FA/10 μM pepmix (10 mM stock)/5% fresh DMSO. The mixture was let sit in the plate for 1 hour to allow the dissolution of the pellet. If the sample appeared cloudy, more resuspension solution was added (50 μL at a time). 50 μL was transferred directly to the mass spec plate and the plate was sealed with the 384-well plate seal.
(§1) Once all samples were added (including cell free), the plate was placed in an autosampler of a mass spectrometer. For the mass spectrometry analysis, methods from example 1 were employed.
Results from certain assessment were presented blow. Cell crash method was utilized. Mass Shifted Peptide Theoretical Max signal is signal of an agent comprising —OH obtained when using the DhaA to convert input agent comprising —Cl into product agent comprising —OH form without involving cells (multiple agents may be converted simultaneously; in some embodiments, can be performed library by library). In some embodiments, each library pool plus positive and negative references was tested in a single well, which in some cases contain about a million or so cells. […]

DhaA enzyme = DhaA enzyme (Rhodococcus rhodochrous, UniProt P0A3G2); assay: Cell free peptide/DhaA conversion, Mass Shifted Peptide Theoretical Max signal (Example 6); assay type: biochemical; details: DhaA converts —Cl input agent into —OH product agent, MS signal
Chain of DhaA enzyme (P0A3G2 whole entry): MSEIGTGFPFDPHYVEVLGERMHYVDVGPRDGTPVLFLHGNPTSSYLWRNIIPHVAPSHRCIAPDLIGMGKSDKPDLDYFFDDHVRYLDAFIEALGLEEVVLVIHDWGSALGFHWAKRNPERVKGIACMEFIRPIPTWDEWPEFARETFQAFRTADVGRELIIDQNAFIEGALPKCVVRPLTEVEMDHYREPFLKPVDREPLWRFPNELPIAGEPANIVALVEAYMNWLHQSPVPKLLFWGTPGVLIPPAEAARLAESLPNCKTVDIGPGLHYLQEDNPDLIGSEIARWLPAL
Experimental: For the cell free systems, DPLs were diluted in a 500 μL DPW plate (library dilution plate). Individual peptides were diluted individually in low-bind tubes until making the final working dilution in PBS. At this point, the individual peptides were transferred to the library dilution plate. By having all final dilutions in one plate, a multichannel was used to transfer the diluted peptides to the cell free plates. The same design as “Source Plate” was used for the cell assay. For the peptide only plate, 45 μL of PBS was added to each well and 5 μL of the diluted library/peptide was added in triplicates. For peptide/DhaA plate, 5 μL of 50 μM DhaA enzyme was added, followed by 40 μL of PBS and 5 μL of the diluted library/peptide. Both plates were kept at the bench top thermomixer at 350 rpm and 37 ° C. overnight. The next day, 2 mL of a cell free solution was prepared with 1 mL of DMSO, 20 μL of PepMix and 980 μL of a 1:1 ratio of ACN/0.1% FA and H2O/0.1% FA. 5 μL of the cell free solution was added to a 384 well plate, followed by 45 μL of the cell free sample.
as §1
Results from certain assessment were presented blow. Cell crash method was utilized. Mass Shifted Peptide Theoretical Max signal is signal of an agent comprising —OH obtained when using the DhaA to convert input agent comprising —Cl into product agent comprising —OH form without involving cells (multiple agents may be converted simultaneously; in some embodiments, can be performed library by library). In some embodiments, each library pool plus positive and negative references was tested in a single well, which in some cases contain about a million or so cells. Each library pool is an individually prepared library with no purifications—all members mixed together along with side products, etc. “Cell Penetration Score” is calculated by dividing “Mass Shifted Peptide Signal in Cells” by “Mass Shifted Peptide Theoretical Max Signal” for each pair of replicates, then averaging those values across replicates; additionally or alternatively, COR and/or RPF may also be utilized.

[2] = MS signal of unconverted —Cl agent from cells, library pool or individual peptide
[3] = MS signal of —OH agent from cells, library pool or individual peptide
[4] = Mass Shifted Peptide Signal in Cells divided by Mass Shifted Peptide Theoretical Max Signal, averaged across replicates
[5] = Mass Shifted Peptide Signal in Cells divided by Theoretical Max Signal per replicate pair, averaged
[6] = library pool tested as mixture, MS signal of unconverted —Cl agent
[7] = library pool tested as mixture, MS signal of —OH agent

Row | Molecule | Peptide Signal in Cells (from cells; agents comprising —Cl) [1, 2] | Mass Shifted Peptide Signal in Cells [1, 3] | Cell Penetration Score [1, 4] | Mass Shifted Peptide Theoretical Max Signal (DhaA enzyme) | Cell Penetration Score [1, 5] | Peptide Signal in Cells (from cells; agents comprising —Cl) [1, 6] | Mass Shifted Peptide Signal in Cells [1, 7]
1 | HaloTagO2-Leu-Thr-Phe-ReN-Glu-Tyr-Trp-Ala-Gln-Cba-Az-Ser-Ala-Ala-NHMe [PEP000136] | 0E+00 | 1E+04 | 0 | 4E+06 | – | – | –
2 | HaloTagO2-Leu-Thr-Phe-ReN-Glu-Tyr-Trp-Ala-Thr-Cba-Az-Ser-Ala-Ala-NH2 [PEP000134] | 3E+03 | 1E+05 | 2 | 6E+06 | – | – | –
3 | CNC(=O)[C@H](C)NC(=O)[C@H](C)NC(=O)[C@H](CO)NC(=O)[C@]1(C)CCCC=CCCCCCC[C@@](C)(NC(=O)[C@H](Cc2ccccc2)NC(=O)[C@@H](NC(=O)[C@H](CC(C)C)NC(=O)CCC(=O)NCCOCCOCCCCCCCl)[C@@H](C)O)C(=O)N[C@@H](CCC(=O)O)C(=O)N[C@@H](Cc2ccc(O)cc2)C(=O)N[C@@H](Cc2c[nH]c3ccccc23)C(=O)N[C@@H](C)C(=O)N[C@@H](CCC(N)=O)C(=O)N[C@@H](CC2CCC2)C(=O)N1 (single isomer, unassigned) [PEP000125, HaloTagO2-Leu-Thr-Phe-R8-Glu-Tyr-Trp-Ala-Gln-Cba-S5-Ser-Ala-Ala-NHMe] | 4E+06 | 5E+07 | 888 | – | – | – | –
4 | HaloTagO2-Leu-Thr-Phe-ReN-Glu-Tyr-Trp-Ala-Gln-Cba-Az-Ser-Ala-Ala-NH2 [PEP000128] | 0E+00 | 1E+05 | 3 | 4E+06 | – | – | –
5 | CC(C)C[C@H](NC(=O)CCC(=O)NCCOCCOCCCCCCCl)C(=O)N[C@H](C(=O)N[C@@H](Cc1ccccc1)C(=O)N[C@]1(C)CCCCCCC=CCCC[C@@](C)(C(=O)N[C@@H](CO)C(=O)N[C@@H](C)C(=O)N[C@@H](C)C(N)=O)NC(=O)[C@H](CC2CCC2)NC(=O)[C@H](C)NC(=O)[C@H](C)NC(=O)[C@H](Cc2c[nH]c3ccccc23)NC(=O)[C@H](Cc2ccc(O)cc2)NC(=O)[C@H](CCC(=O)O)NC1=O)[C@@H](C)O [PEP000122, HaloTagO2-Leu-Thr-Phe-R8-Glu-Tyr-Trp-Ala-Ala-Cba-S5-Ser-Ala-Ala-NH2] | – | – | – | – | 1188 | 8E+06 | 9E+07
6 | CNC(=O)[C@H](C)NC(=O)[C@H](C)NC(=O)[C@H](CO)NC(=O)[C@]1(C)CCCC=CCCCCCC[C@@](C)(NC(=O)[C@H](Cc2ccccc2)NC(=O)[C@@H](NC(=O)[C@H](CC(C)C)NC(=O)CCC(=O)NCCOCCOCCCCCCCl)[C@@H](C)O)C(=O)N[C@@H]([C@@H](C)O)C(=O)N[C@@H](Cc2ccc(O)cc2)C(=O)N[C@@H](Cc2c[nH]c3ccccc23)C(=O)N[C@@H](C)C(=O)N[C@@H](CCC(N)=O)C(=O)N[C@@H](CC2CCC2)C(=O)N1 [PEP000121, HaloTagO2-Leu-Thr-Phe-R8-Thr-Tyr-Trp-Ala-Gln-Cba-S5-Ser-Ala-Ala-NHMe] | – | – | – | – | 401 | 1E+07 | 2E+07
7 | CNC(=O)[C@H](C)NC(=O)[C@H](C)NC(=O)[C@H](CO)NC(=O)[C@]1(C)CCCC=CCCCCCC[C@@](C)(NC(=O)[C@H](Cc2ccccc2)NC(=O)[C@@H](NC(=O)[C@H](CC(C)C)NC(=O)CCC(=O)NCCOCCOCCCCCCCl)[C@@H](C)O)C(=O)N[C@@H](CCC(=O)O)C(=O)N[C@@H](Cc2ccc(O)cc2)C(=O)N[C@@H](Cc2c[nH]c3ccccc23)C(=O)N[C@@H](C)C(=O)N[C@@H](C)C(=O)N[C@@H](CC2CCC2)C(=O)N1 [PEP000124, HaloTagO2-Leu-Thr-Phe-R8-Glu-Tyr-Trp-Ala-Ala-Cba-S5-Ser-Ala-Ala-NHMe] | 3E+06 | 5E+07 | 745 | – | – | – | –
8 | CNC(=O)[C@H](C)NC(=O)[C@H](C)NC(=O)[C@H](CO)NC(=O)[C@]1(C)CCCC=CCCCCCC[C@@](C)(NC(=O)[C@H](Cc2ccccc2)NC(=O)[C@@H](NC(=O)[C@H](CC(C)C)NC(=O)CCC(=O)NCCOCCOCCCCCCCl)[C@@H](C)O)C(=O)N[C@@H](CCC(=O)O)C(=O)N[C@@H](Cc2ccc(O)cc2)C(=O)N[C@@H](Cc2c[nH]c3ccccc23)C(=O)N[C@@H](C)C(=O)N[C@@H]([C@@H](C)O)C(=O)N[C@@H](CC2CCC2)C(=O)N1 [PEP000126, HaloTagO2-Leu-Thr-Phe-R8-Glu-Tyr-Trp-Ala-Thr-Cba-S5-Ser-Ala-Ala-NHMe] | 4E+06 | 4E+07 | 561 | – | – | – | –
9 | CC(C)C[C@H](NC(=O)CCC(=O)NCCOCCOCCCCCCCl)C(=O)N[C@H](C(=O)N[C@@H](Cc1ccccc1)C(=O)N[C@]1(C)CCCCCCC=CCCC[C@@](C)(C(=O)N[C@@H](CO)C(=O)N[C@@H](C)C(=O)N[C@@H](C)C(N)=O)NC(=O)[C@H](CC2CCC2)NC(=O)[C@H](CCC(N)=O)NC(=O)[C@H](C)NC(=O)[C@H](Cc2c[nH]c3ccccc23)NC(=O)[C@H](Cc2ccc(O)cc2)NC(=O)[C@H](C)NC1=O)[C@@H](C)O [PEP000116, HaloTagO2-Leu-Thr-Phe-R8-Ala-Tyr-Trp-Ala-Gln-Cba-S5-Ser-Ala-Ala-NH2] | – | – | – | – | 475 | 4E+07 | 4E+07
